The values that follow come from patent publication US7094781B2, “Sulfamides and their use as endothelin receptor antagonists” (Actelion Pharmaceuticals Ltd., priority 2000, dated 2006).

Experiment [1] concerns the target T1, ETA receptors (rat aortic rings) (Rattus norvegicus, UniProt P26684).
T1 construct: The thoracic aorta or trachea were excised, dissected and cut in 3–5 mm rings; from tissue; host or cells: thoracic aorta rings of adult Wistar rats, endothelium removed
T1 sequence (P26684 21-426): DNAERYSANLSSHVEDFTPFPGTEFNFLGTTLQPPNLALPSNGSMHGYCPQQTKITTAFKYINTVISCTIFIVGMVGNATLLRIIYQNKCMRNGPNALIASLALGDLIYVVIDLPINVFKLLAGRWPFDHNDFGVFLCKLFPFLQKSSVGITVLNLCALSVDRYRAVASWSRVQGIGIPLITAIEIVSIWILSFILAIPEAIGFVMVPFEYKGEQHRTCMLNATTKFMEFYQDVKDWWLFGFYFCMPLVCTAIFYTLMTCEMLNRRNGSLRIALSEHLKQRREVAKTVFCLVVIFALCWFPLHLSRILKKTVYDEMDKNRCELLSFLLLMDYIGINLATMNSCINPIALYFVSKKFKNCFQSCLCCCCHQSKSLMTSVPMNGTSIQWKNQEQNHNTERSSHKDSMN
Kind of experiment: Inhibition of endothelin-1-induced contraction on isolated rat aortic rings.
Procedure: (§1) 2) Inhibition of Endothelin-induced Contractions on Isolated Rat Aortic Rings (ETA Receptors) and Rat Tracheal Rings (ETB Receptors):
(§2) The functional inhibitory potency of the endothelin antagonists was assessed by their inhibition of the contraction induced by endothelin-1 on rat aortic rings (ETA receptors) and of the contraction induced by sarafotoxin S6c on rat tracheal rings (ETB receptors). Adult Wistar rats were anesthetized and exsanguinated. The thoracic aorta or trachea were excised, dissected and cut in 3–5 mm rings. The endothelium/epithelium was removed by gentle rubbing of the intimal surface. […] The rings were connected to force transducers and isometric tension was recorded (EMKA Technologies SA, Paris, France). The rings were stretched to a resting tension of 3 g (aorta) or 2 g (trachea). […] The functional inhibitory potency of the test compound was assessed by calculating the concentration ratio, i.e. the shift to the right of the EC50 induced by different concentrations of test compound. EC50 is the concentration of endothelin needed to get a half-maximal contraction, pA2 is the negative logarithm of the antagonist concentration which induces a two-fold shift in the EC50 value.

Experiment [2] has as its target T2, human recombinant ETB receptor (Homo sapiens, UniProt P24530).
T2 construct: expressed in transfected cells; host or cells: CHO cells (microsomal membranes)
T2 sequence (P24530 27-442): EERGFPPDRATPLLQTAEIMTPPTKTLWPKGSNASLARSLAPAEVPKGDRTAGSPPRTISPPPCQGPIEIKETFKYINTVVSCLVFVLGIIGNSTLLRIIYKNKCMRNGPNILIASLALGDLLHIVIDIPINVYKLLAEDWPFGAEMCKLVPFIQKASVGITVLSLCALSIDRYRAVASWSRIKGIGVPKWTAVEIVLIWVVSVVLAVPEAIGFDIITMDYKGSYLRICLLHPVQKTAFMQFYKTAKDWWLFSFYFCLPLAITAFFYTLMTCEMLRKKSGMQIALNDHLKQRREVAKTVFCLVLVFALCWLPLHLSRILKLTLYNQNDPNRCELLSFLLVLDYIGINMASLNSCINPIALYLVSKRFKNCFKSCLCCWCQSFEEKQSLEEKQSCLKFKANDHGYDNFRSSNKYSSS
The experiment in a line: Inhibition of [125I]ET-1 binding to membranes from CHO cells carrying human ETB receptors.

In experiment [3] the target is T3, human recombinant ETA receptor (Homo sapiens, UniProt P25101).
T3 construct: expressed in transfected cells; host or cells: CHO cells (microsomal membranes)
T3 sequence (P25101 21-427): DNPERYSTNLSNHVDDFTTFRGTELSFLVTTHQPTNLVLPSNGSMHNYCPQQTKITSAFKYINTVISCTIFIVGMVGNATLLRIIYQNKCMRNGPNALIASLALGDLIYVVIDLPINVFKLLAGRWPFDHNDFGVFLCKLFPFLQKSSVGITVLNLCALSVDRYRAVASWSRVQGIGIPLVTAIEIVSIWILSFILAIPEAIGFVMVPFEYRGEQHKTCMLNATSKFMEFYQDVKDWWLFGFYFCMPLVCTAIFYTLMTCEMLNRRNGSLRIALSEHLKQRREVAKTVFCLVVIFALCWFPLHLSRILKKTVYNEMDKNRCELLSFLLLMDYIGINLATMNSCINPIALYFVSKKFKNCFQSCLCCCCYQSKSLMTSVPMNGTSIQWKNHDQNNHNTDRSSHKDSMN
Kind of experiment: Inhibition of [125I]ET-1 binding to membranes from CHO cells carrying human ETA receptors.

Experiment [4] addresses T4, ETB receptors (rat tracheal rings) (Rattus norvegicus, UniProt P21451).
T4 construct: The thoracic aorta or trachea were excised, dissected and cut in 3–5 mm rings; from tissue; host or cells: tracheal rings of adult Wistar rats, epithelium removed
T4 sequence (P21451 27-442): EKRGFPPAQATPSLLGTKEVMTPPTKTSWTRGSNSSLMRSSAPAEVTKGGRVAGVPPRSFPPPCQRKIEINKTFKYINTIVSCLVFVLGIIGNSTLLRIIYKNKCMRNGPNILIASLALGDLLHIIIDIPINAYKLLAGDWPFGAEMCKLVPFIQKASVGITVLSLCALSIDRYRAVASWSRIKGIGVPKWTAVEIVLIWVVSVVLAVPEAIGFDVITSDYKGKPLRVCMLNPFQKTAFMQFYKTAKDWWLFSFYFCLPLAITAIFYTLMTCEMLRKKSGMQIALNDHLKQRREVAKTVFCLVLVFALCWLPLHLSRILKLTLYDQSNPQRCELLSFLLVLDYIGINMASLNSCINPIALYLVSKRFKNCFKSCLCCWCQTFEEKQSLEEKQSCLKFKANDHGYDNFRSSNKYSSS
Kind of experiment: Inhibition of sarafotoxin S6c-induced contraction on isolated rat tracheal rings.
Procedure: as §1, §2

Setting [5] is: read-out: pA2 value ETA (converted).

The structures appear in SMILES notation. Where two headings read alike, the source gives them in different places.

By IC50 is commonly meant the concentration at which inhibition is half-maximal. On to `COc1ccc(CNS(=O)(=O)Nc2nc(-c3ccncc3)nc(OC)c2Oc2ccccc2OC)cc1` [Example 161], for which the Kb in experiment [1] is 0.513 µM. The IC50 was more than 1 µM in experiment [2] and 0.0062 µM in experiment [3].

Turning to `COc1ccc(CNS(=O)(=O)Nc2nc(-c3ncccn3)nc(OC)c2Oc2ccccc2OC)cc1` [Example 51], the Kb in experiment [1] (setting [5]) is 0.282 µM. Further, the IC50 in experiment [2] is 0.306 µM; in experiment [3], 0.0134 µM.

The molecule `COc1ccccc1Oc1c(NS(=O)(=O)NCC2CCCCC2)nc(-c2ncccn2)nc1OCCOc1ncc(Br)cn1` [Example 133] gave a Kb in experiment [1] of 0.0191 µM. Further, the IC50 turned out to be 0.212 µM in experiment [2] and 0.0017 µM in experiment [3].

On to `Cc1ccc(-c2c(NS(=O)(=O)NCC3CC3)ncnc2OCCOc2ncc(Br)cn2)cc1` [Example 119], for which the Kb in experiment [1] was 0.0417 µM. The IC50 in experiment [2] is more than 1 µM; in experiment [3], 0.0042 µM.

For the molecule `COc1ccccc1Oc1c(NS(=O)(=O)Nc2ccc(C(C)C)cc2)nc(-c2ccncc2)nc1OCCOc1ncc(Br)cn1` [Example 5, 4-i-propyl-phenyl sulfamic acid-[6-[2-(5-bromo-pyrimidin-2-yloxy)-ethoxy]-5-(o-methoxy-phenoxy)-2-(4-pyridyl)-pyrimidin-4-yl]-amide], the Kb in experiment [1] (setting [5]) is 0.224 µM. Also, the results for the half-maximal inhibitory concentration (IC50) in experiment [2] and in experiment [3] were 1.28 µM and 0.028 µM, respectively.

As to `COc1ccccc1Oc1c(NS(=O)(=O)NCc2ccccc2)nc(-c2ncccn2)nc1OCCOC(=O)Nc1ccccn1` [Example 41], the Kb in experiment [1] was 0.00427 µM. The IC50 worked out at 0.0416 µM in experiment [2] and 0.0032 µM in experiment [3].

In the case of `CSc1cnc(OCCOc2ncnc(NS(=O)(=O)NCc3ccccc3)c2-c2ccc(Br)cc2)nc1` [Example 102], the Kb in experiment [4] was 0.174 µM; in experiment [1], 0.00398 µM. In addition, the figures for the IC50 in experiment [2] and in experiment [3] were 0.065 µM and 0.00046 µM, respectively.

Take `Cc1ccc(-c2c(NS(=O)(=O)NCc3ccccc3)nc(-c3ccncc3)nc2OCCOc2ncc(Br)cn2)cc1` [Example 32]: the Kb in experiment [1] (setting [5]) was 0.00178 µM. The half-inhibitory concentration (IC50) in experiment [2] was found to be 0.864 µM; in experiment [3], 0.0035 µM.

Take `O=S(=O)(NCc1ccccn1)Nc1ncnc(OCCOc2ncc(Br)cn2)c1-c1ccc(Cl)cc1` [Example 18]: the Kb in experiment [4] is more than 10 µM; in experiment [1] (setting [5]) it was 0.00708 µM. Moreover, the IC50 in experiment [2] was 3.33 µM; in experiment [3], 0.0085 µM.

For the molecule `O=S(=O)(NCc1cccs1)Nc1ncnc(OCCOc2ncc(Br)cn2)c1-c1ccc(Cl)cc1` [Example 20], the Kb in experiment [1] was 0.0617 µM. Moreover, the half-inhibitory concentration (IC50) in experiment [2] was found to be 1.72 µM; in experiment [3] it was 0.0049 µM.

`COc1ccccc1Oc1c(NS(=O)(=O)NCc2ccccc2)nc(SC)nc1OCCO` [Example 203, benzylsulfamic acid [6-(2-hydroxy-ethoxy)-5-(2-methoxy-phenoxy)-2-methylsulfanyl-pyrimidin-4-yl]-amide]: the Kb in experiment [4] (rat tracheal rings, contraction induced by sarafotoxin S6c, 10 min incubation, read-out: pA2 value ETB (converted)) is 1.45 µM; in experiment [1] (setting [5]), 0.0204 µM.
